Measurements taken from patent US9790216B2, “3-substituted cyclopentylamine derivatives” (Merck Patent GmbH, priority 2013, dated 2017).

Each molecule was assayed against T1, human fatty acid synthase FASN (Homo sapiens, UniProt P49327) (assay: Biochemical activity testing of human fatty acid synthase FASN (NADPH fluorescence intensity enzyme assay)). Conditions: @30 μM.
T1 construct: human recombinant full-length fatty acid synthase; made in house; host or cells: SF9 cells
Text: • GST=Glutathione-S-transferase • FRET=Fluorescence resonance energy transfer • HTRF®=(homogenous time resolved fluorescence) • HEPES=4-(2-hydroxyethyl)-1-piperazine ethanesulfonic acid buffer • DTT=Dithiothreitol • BSA=bovine serum albumin • CHAPS=detergent; • CHAPS=3-[(3-cholamidopropyl)dimethylammonio]-1-propanesulfonate Biochemical Activity Testing of Human Fatty Acid Synthase FASN
Fatty acid synthase FASN is a multifunctional enzyme with seven catalytic activities thereby synthesising long chain fatty acids especially palmitoyl-CoA in the presence of co-factor NADPH starting from the substrates acetyl-CoA and malonyl-CoA. The reductive synthesis is realized by the oxidation of NADPH to NADP. Since NADPH has a high fluorescence intensity quantum yield compared to NADP with excitation at 340 nm and emission at 460 nm, the reaction can be monitored via the decrease in fluorescence intensity. The biochemical FASN activity testing was performed as 384 well two-time-point kinetic fluorescence intensity assay format in Greiner low volume medium binding 384-well black microtiter plates in a total assay volume of 8 μl and was used for high throughput screen. In each well 3 μl 40 nM human recombinant full-length fatty acid synthase (produced in-house in SF9 cells) were dispensed in the following assay buffer: 50 mM potassium phosphate buffer pH 7.0, 0.005% (w/v) BSA, 2 mM Glutathione, 0.02% Tween-20. Then 2 μl of 200 μM NADPH in assay buffer were added, followed by the addition of the test compounds in 10 dilution concentrations starting with 30 μM (final concentration) to get a final DMSO content of 1% (v/v). The mixture was incubated for at least 15 min at room temperature. After the pre-incubation the enzymatic reaction was started by the addition of 2 μl substrate solution (80 μM acetyl-CoA, 240 μM malonyl-CoA). A first fluorescence intensity measurement (time point one) was performed with an Envision multimode reader (Perkin Elmer LAS Germany GmbH) at excitation wavelength 340 nm (lamp mode) and emission wavelength 460 nm. The reaction was incubated for 30 minutes at room temperature. After this the fluorescence intensity was measured again in the Envision using the same parameters as described above (second time point measurement). The data were analysed by subtracting the first time point measurement value from the second time point measurement value (after the enzymatic reaction). The differences of the emission signals were determined. These reflect directly the conversion rate of NADPH. The full value used was the inhibitor-free reaction. A pharmacological zero value was used like GSK837149A (Sigma-Aldrich) in a final concentration of 5-10 μM. The inhibitory values (IC50) were determined using either the program Symyx Assay Explorer® or Condosseo® from GeneData.

T1 sequence (P49327 whole entry): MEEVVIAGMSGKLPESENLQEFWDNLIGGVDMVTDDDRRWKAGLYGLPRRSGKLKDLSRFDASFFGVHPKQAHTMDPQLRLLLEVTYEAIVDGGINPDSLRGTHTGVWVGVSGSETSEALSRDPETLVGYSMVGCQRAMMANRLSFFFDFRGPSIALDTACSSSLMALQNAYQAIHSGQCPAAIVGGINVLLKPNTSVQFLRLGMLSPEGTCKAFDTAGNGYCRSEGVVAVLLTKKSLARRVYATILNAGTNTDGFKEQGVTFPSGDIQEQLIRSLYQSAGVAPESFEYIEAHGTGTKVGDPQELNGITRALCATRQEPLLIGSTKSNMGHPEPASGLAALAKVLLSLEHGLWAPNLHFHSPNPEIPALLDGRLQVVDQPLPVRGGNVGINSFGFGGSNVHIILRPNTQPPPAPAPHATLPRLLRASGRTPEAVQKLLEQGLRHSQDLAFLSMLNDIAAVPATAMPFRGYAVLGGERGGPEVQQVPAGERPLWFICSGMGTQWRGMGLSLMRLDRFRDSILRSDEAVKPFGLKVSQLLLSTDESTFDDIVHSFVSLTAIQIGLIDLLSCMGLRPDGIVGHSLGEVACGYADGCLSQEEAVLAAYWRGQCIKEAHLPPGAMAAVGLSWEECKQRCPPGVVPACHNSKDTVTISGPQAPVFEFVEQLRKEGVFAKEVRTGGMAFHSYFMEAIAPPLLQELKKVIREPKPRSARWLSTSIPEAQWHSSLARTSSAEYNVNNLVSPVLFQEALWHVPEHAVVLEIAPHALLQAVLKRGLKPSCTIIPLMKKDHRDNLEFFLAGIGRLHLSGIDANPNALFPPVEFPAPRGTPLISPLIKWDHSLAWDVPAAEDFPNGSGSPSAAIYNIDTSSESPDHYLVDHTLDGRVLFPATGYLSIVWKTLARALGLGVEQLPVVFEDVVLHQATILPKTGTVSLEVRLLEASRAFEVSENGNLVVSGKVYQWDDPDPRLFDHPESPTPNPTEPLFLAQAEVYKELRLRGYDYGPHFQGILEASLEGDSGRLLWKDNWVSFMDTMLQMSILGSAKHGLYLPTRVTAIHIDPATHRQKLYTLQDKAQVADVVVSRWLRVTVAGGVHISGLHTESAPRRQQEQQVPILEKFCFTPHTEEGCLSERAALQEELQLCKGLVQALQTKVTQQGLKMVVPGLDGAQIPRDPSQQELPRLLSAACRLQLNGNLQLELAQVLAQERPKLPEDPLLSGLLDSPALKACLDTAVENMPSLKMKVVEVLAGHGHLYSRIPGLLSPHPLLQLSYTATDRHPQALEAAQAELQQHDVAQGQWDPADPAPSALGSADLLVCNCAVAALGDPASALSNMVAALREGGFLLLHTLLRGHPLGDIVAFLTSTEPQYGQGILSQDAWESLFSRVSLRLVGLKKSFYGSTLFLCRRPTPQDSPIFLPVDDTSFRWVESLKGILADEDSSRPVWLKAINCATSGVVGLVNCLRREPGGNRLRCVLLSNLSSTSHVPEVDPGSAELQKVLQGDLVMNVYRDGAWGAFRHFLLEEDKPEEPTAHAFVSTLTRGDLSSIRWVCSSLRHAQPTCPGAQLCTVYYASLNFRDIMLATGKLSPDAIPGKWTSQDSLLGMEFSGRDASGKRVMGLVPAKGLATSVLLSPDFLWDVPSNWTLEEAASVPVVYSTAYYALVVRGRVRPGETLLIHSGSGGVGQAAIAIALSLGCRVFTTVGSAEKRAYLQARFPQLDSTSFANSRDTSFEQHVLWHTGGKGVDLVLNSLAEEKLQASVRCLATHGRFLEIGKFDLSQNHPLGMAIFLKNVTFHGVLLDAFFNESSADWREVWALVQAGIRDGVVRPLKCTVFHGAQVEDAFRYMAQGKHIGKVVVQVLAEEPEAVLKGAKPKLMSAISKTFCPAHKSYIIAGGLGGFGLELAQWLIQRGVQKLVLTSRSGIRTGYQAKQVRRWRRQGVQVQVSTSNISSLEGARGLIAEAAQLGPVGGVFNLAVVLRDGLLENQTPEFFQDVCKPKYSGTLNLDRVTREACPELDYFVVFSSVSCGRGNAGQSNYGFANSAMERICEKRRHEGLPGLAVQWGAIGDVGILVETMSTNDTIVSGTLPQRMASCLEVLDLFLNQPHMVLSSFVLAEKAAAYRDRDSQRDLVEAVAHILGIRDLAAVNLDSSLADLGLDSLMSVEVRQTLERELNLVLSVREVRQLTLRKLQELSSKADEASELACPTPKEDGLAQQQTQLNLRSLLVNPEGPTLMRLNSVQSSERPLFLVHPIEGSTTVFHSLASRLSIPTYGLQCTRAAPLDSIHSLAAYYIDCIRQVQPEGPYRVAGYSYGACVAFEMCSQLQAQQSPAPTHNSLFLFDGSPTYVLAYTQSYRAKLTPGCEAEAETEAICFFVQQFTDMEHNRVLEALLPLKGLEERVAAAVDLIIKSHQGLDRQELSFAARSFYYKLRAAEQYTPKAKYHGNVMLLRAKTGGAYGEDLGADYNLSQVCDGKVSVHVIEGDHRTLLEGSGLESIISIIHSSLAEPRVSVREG

Compound	IC50 FASN (enzyme assay): % at single concentration [% @30 μM]
Cc1noc([C@H]2CC[C@@H](N(C)C(=O)c3ccc(-c4nc5ccccc5o4)cc3)C2)n1 [Compound A28, 4-benzoxazol-2-yl-N-methyl-N-[(1 R,3S)-3-(3-methyl-[1,2,4]oxadiazol-5-yl)-cyclopentyl]-benzamide]	−38

Same assay, conditions: human recombinant full-length FASN, inhibition

Compound	IC50 [nM]
COc1cc(C(=O)N(C)[C@@H]2CC[C@H](c3nnc(C)o3)C2)ccc1-c1nc2ccccc2o1 [Compound A18, 4-benzoxazol-2-yl-3-methoxy-N-methyl-N-[(1 R,3S)-3-(5-methyl-[1,3,4]oxadiazol-2-yl)-cyclopentyl]-benzamide]	< 300
CCCc1nnc([C@H]2CC[C@@H](N(C)C(=O)c3ccc(-c4ccccc4)cc3)C2)o1 [Compound A2, biphenyl-4-carboxylic acid methyl-[(1R,3S)-3-(5-propyl-[1,3,4]oxadiazol-2-yl)-cyclopentyl]-amide]	< 300
Cc1nnc([C@H]2CC[C@@H](N(C)C(=O)c3ccc(-c4ccccc4)cc3)C2)o1 [Compound A24, biphenyl-4-carboxylic acid methyl-[(1R,3S)-3-(5-methyl-[1,3,4]oxadiazol-2-yl)-cyclopentyl]-amide]	< 300
CCc1nnc([C@H]2CC[C@@H](N(C)C(=O)c3ccc(-c4ccncc4)cc3)C2)o1 [Compound A8, N-[(1R,3S)-3-(5-ethyl-[1,3,4]oxadiazol-2-yl)-cyclopentyl]-N-methyl-4-pyridin-4-yl-benzamide]	300 to 3000
Cc1nnc([C@H]2CC[C@@H](N(C)C(=O)c3ccc(-c4nc5ccccc5[nH]4)cc3)C2)o1 [Compound A17, 4-(1H-benzimidazol-2-yl)-N-methyl-N-[(1 R,3S)-3-(5-methyl-[1,3,4]oxadiazol-2-yl)-cyclopentyl]-benzamide]	< 300
CC(C)c1nnc([C@H]2CC[C@@H](N(C)C(=O)c3ccc(-c4nc5ccccc5[nH]4)cc3)C2)o1 [Compound A11, 4-(1H-benzimidazol-2-yl)-N-[(1 R,3S)-3-(5-isopropyl-[1,3,4]oxadiazol-2-yl)-cyclopentyl]-N-methyl-benzamide]	< 300
CC(C)c1nnc([C@H]2CC[C@@H](N(C)C(=O)c3ccc(-c4ccncc4)cc3)C2)o1 [Compound A12, N-[(1R,3S)-3-(5-isopropyl-[1,3,4]oxadiazol-2-yl)-cyclopentyl]-N-methyl-4-pyridin-4-yl-benzamide]	300 to 3000
Cc1nnc([C@H]2CC[C@@H](N(C)C(=O)c3ccc(-c4ccc(C#N)cc4)cc3)C2)o1 [Compound A25, 4′-cyano-biphenyl-4-carboxylic acid methyl-[(1R,3S)-3-(5-methyl-[1,3,4]oxadiazol-2-yl)-cyclopentyl]-amide]	< 300
CCCc1nnc([C@H]2CC[C@@H](N(C)C(=O)c3ccc(-c4ccc(C#N)cc4)cc3)C2)o1 [Compound A4, 4′-cyano-biphenyl-4-carboxylic acid methyl-[(1 R,3S)-3-(5-propyl-[1,3,4]oxadiazol-2-yl)-cyclopentyl]-amide]	< 300
CCCc1nnc([C@H]2CC[C@@H](N(C)C(=O)c3ccc(-c4nc5ccccc5o4)cc3)C2)o1 [Compound A1, 4-benzoxazol-2-yl-N-methyl-N-[(1 R,3S)-3-(5-propyl-[1,3,4]oxadiazol-2-yl)-cyclopentyl]-benzamide]	< 300
Cc1nnc([C@H]2CC[C@@H](N(C)C(=O)c3ccc(-c4nc5ccccc5s4)cc3)C2)o1 [Compound A14, 4-benzothiazol-2-yl-N-methyl-N-[(1 R,3S)-3-(5-methyl-[1,3,4]oxadiazol-2-yl)-cyclopentyl]-benzamide]	< 300
Cc1nnc([C@H]2CC[C@@H](N(C)C(=O)c3ccc(C#Cc4ccncc4)cc3)C2)o1 [Compound A22, N-methyl-N-[(1R,3S)-3-(5-methyl-[1,3,4]oxadiazol-2-yl)-cyclopentyl]-4-pyridin-4-ylethynyl-benzamide]	300 to 3000
CCc1nnc([C@H]2CC[C@@H](N(C)C(=O)c3ccc(-c4ccc(C#N)cc4)cc3)C2)o1 [Compound A6, 4′-cyano-biphenyl-4-carboxylic acid [(1R,3S)-3-(5-ethyl-[1,3,4]oxadiazol-2-yl)-cyclopentyl]-methyl-amide]	< 300
Cc1cnc([C@H]2CC[C@@H](N(C)C(=O)c3ccc(-c4nc5ccccc5o4)cc3)C2)o1 [Compound A26, 4-benzoxazol-2-yl-N-methyl-N-[(1 R,3S)-3-(5-methyl-oxazol-2-yl)-cyclopentyl]-benzamide]	< 300
CCCc1cn([C@H]2CC[C@@H](N(C)C(=O)c3ccc(-c4ccccc4)cc3)C2)nn1 (racemic) [Compound A30, (rac)-cis-biphenyl-4-carboxylic acid methyl-[3-(4-propyl-[1,2,3]triazol-1-yl)-cyclopentyl]-amide]	3000 to 50000
CN(C(=O)c1ccc(-c2ccccc2)cc1)[C@@H]1CC[C@H](n2cc(C3CC3)nn2)C1 (racemic) [Compound A29, (rac)-cis-biphenyl-4-carboxylic acid [-3-(4-cyclopropyl-[1,2,3]triazol-1-yl)-cyclopentyl]-methyl-amide]	3000 to 50000
CCc1nnc([C@H]2CC[C@@H](N(C)C(=O)c3ccc(-c4nc5ccccc5o4)cc3)C2)o1 [Compound A5, 4-benzoxazol-2-yl-N-[(1 R,3S)-3-(5-ethyl-[1,3,4]oxadiazol-2-yl)-cyclopentyl]-N-methyl-benzamide]	< 300
Cc1nnc([C@H]2CC[C@@H](N(C)C(=O)c3ccc(-c4nc5ccccc5o4)cc3)C2)o1 [Compound A13, 4-benzoxazol-2-yl-N-methyl-N-[(1 R,3S)-3-(5-methyl-[1,3,4]oxadiazol-2-yl)-cyclopentyl]-benzamide]	< 300
Cc1nnc([C@H]2CC[C@@H](N(C)C(=O)c3ccc(C#Cc4ccc(Cl)cc4)cc3)C2)o1 [Compound A21, 4-(4-chloro-phenylethynyl)-N-methyl-N-[(1 R,3S)-3-(5-methyl-[1,3,4]oxadiazol-2-yl)-cyclopentyl]-benzamide]	< 300
CCCc1nnc([C@H]2CC[C@@H](N(C)C(=O)c3ccc(C#Cc4ccc(F)cc4)cc3)C2)o1 [Compound A3, 4-(4-fluoro-phenylethynyl)-N-methyl-N-[(1 R,3S)-3-(5-propyl-[1,3,4]oxadiazol-2-yl)-cyclopentyl]-benzamide]	< 300
Cc1nnc([C@H]2CC[C@@H](N(C)C(=O)c3ccc(-c4ccc(Cl)cc4)cc3)C2)o1 [Compound A16, 4′-chloro-biphenyl-4-carboxylic acid methyl-[(1R,3S)-3-(5-methyl-[1,3,4]oxadiazol-2-yl)-cyclopentyl]-amide]	< 300
Cc1nnc([C@H]2CC[C@@H](N(C)C(=O)c3ccc(-c4nc5ccccc5o4)cn3)C2)o1 [Compound A23, 5-benzoxazol-2-yl-pyridine-2-carboxylic acid methyl-[(1R,3S)-3-(5-methyl-[1,3,4]oxadiazol-2-yl)-cyclopentyl]-amide]	300 to 3000
CC(C)c1nnc([C@H]2CC[C@@H](N(C)C(=O)c3ccc(-c4nc5ccccc5o4)cc3)C2)o1 [Compound A9, 4-benzoxazol-2-yl-N-[(1 R,3S)-3-(5-isopropyl-[1,3,4]oxadiazol-2-yl)-cyclopentyl]-N-methyl-benzamide]	< 300
Cc1coc([C@H]2CC[C@@H](N(C)C(=O)c3ccc(-c4nc5ccccc5o4)cc3)C2)n1 [Compound A27, 4-benzoxazol-2-yl-N-methyl-N-[(1 R,3S)-3-(4-methyl-oxazol-2-yl)-cyclopentyl]-benzamide]	300 to 3000
Cc1nnc([C@H]2CC[C@@H](N(C)C(=O)c3ccc(-c4ccncc4)cc3)C2)o1 [Compound A15, N-methyl-N-[(1R,3S)-3-(5-methyl-[1,3,4]oxadiazol-2-yl)-cyclopentyl]-4-pyridin-4-yl-benzamide]	300 to 3000
CCc1nnc([C@H]2CC[C@@H](N(C)C(=O)c3ccc(-c4nc5ccccc5[nH]4)cc3)C2)o1 [Compound A7, 4-(1H-benzimidazol-2-yl)-N-[(1 R,3S)-3-(5-ethyl-[1,3,4]oxadiazol-2-yl)-cyclopentyl]-N-methyl-benzamide]	< 300
Cc1nnc([C@H]2CC[C@@H](N(C)C(=O)c3ccc(-c4nc5cc(Cl)ccc5o4)cc3)C2)o1 [Compound A19, 4-(5-chloro-benzoxazol-2-yl)-N-methyl-N-[(1 R,3S)-3-(5-methyl-[1,3,4]oxadiazol-2-yl)-cyclopentyl]-benzamide]	< 300
